Here are results for three molecules from patent US10144742B2 (Millennium Pharmaceuticals, Inc., priority 2014, dated 2018).

One experiment has as its target hNAMPT protein (Homo sapiens (Human), UniProt P43490). The experiment in a line: NAMPT enzyme assay (TR-FRET/HTRF, BodiPY ligand, anti 6His-Tb). Type of experiment: binding. The settings on record: for inhibition at 1 µM: NAMPT inhibition at compound concentration 1 μM, read-out: Percent Inhibition; for IC50: NAMPT inhibition, IC50 range class, read-out: IC50. The method, boiled down: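 Compound or DMSO was incubated for 1 h at room temperature, protected from light, with BodiPY ligand and hNAMPT labelled by terbium anti-6His antibody. The 520 nm to 486 nm emission ratio after 320 nm excitation gave inhibition versus vehicle, from which concentration-response curves yielded IC50.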

The test system of a further experiment is PC3 cells. Nature of the experiment: PC3 growth inhibition (Cell-titer glo, 72 hours). The following applies: Homo sapiens, PC-3; compound concentration 1.667 μM; PC3 cells, 72 hours, Cell-titer glo; read-out: Percent Inhibition (PC3 growth inhibition). In kind it is cell-based. The method, boiled down: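 Compounds in AIM serum-free medium were applied for 72 h at 37 °C, 5% CO2 to PC3 cells plated overnight from RPMI1640 culture. Luminescence after 10 min CellTiter-Glo, normalised to DMSO, gave % viability at 1 μM or 1.667 μM, or GI50/LD50.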

The subject of the next experiment is activated T cells. The following applies: cited from earlier work.
In experiment [1] the test system is collagen-induced arthritis. The settings on record: cited from earlier work.
Experiment [2] relates to experimental autoimmune encephalomyelitis (EAE). The following applies: model of T-cell mediated autoimmune disorders; cited from earlier work.

Chain of hNAMPT protein (P43490 whole entry): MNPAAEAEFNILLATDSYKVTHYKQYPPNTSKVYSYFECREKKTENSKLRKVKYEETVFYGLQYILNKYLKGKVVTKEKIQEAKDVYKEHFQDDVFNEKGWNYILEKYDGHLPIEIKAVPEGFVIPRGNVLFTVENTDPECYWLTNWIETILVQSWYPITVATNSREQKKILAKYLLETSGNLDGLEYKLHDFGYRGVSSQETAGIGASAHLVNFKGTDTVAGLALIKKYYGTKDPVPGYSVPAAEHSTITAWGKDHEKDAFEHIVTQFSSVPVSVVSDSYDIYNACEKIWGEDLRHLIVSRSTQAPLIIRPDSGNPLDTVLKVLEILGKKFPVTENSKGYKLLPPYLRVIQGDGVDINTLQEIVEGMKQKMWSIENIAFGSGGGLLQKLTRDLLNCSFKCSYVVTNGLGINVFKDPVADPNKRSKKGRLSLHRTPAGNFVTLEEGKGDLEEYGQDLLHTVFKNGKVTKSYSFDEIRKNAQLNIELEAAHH

As to `COc1cc(-c2nc3cc(C(=O)NCCCc4nccn4C)ccc3nc2-c2ccc(F)cc2)c(F)cn1` [Compound I-519, 3-(5-fluoro-2-methoxypyridin-4-yl)-2-(4-fluorophenyl)-N-[3-(1-methyl-1H-imidazol-2-yl)propyl]quinoxaline-6-carboxamide], at hNAMPT protein, the inhibition at 1 µM came to 97% and the IC50 is less than 0.1 µM. Moreover, the inhibition at 1.667 µM in the experiment on PC3 cells is 99%.
On to `O=C(NCCCc1nnc[nH]1)c1ccc2nc(-c3ccc(F)cc3)c(-c3cc(Cl)ccc3F)nc2c1` [Compound I-520, 3-(5-chloro-2-fluorophenyl)-2-(4-fluorophenyl)-N-[3-(4H-1,2,4-triazol-3-yl)propyl]quinoxaline-6-carboxamide], for which, at hNAMPT protein, the inhibition at 1 µM was found to be 89% and the IC50 is less than 0.1 µM. Besides, the inhibition at 1.667 µM in the experiment with PC3 cells is 1%.
Consider `O=C(/C=C/c1cccnc1)NCCCCC1CCN(C(=O)c2ccccc2)CC1` [FK866], for which, in the experiment with activated T cells, the “effect on activated T cells” value is “selectively block proliferation and induce apoptosis of activated T cells”. In experiment [1], the “efficacy in animal models of arthritis” value is given as “efficacious”. The “effect on manifestations of EAE” value in experiment [2] is listed as “ameliorated the manifestations of experimental autoimmune encephalomyelitis”.

The term inhibition denotes the share of the control response that was lost under treatment. A word on the IC50: it is the concentration needed to halve the response being measured.
